Assay [1] has as its target T1, α4β3γ2 GABAA/BzR (Homo sapiens, UniProt P18507+P48169).
T1 construct: expressed in transfected cells; host or cells: LTK cells (given for XLi-093 only)
Nature of the assay: biochemical. Format: binding.

Assay [2] has as its target T1, α4β3γ2 GABAA/BzR. The following applies: cited from earlier work.
Assay [3] addresses T2, α1β3γ2 GABAA/BzR (Homo sapiens, UniProt P14867+P18507). Nature of the assay: Competition binding to HEK cell membranes, α1β3γ2. Also noted: expressed in transfected cells.
The target in assay [4] is T3, α2β3γ2 GABAA/BzR (Homo sapiens, UniProt P18507+P47869). As to the kind of experiment: Competition binding to HEK cell membranes, α2β3γ2. Further details: expressed in transfected cells. The note with it: Figure 17; read-out: Binding data Ki α2.
For assay [5], the target named is T4, α3β3γ2 GABAA/BzR (Homo sapiens, UniProt P18507+P34903). Nature of the assay: Competition binding to HEK cell membranes, α3β3γ2. Further details: expressed in transfected cells.
Assay [6] addresses T5, α5β3γ2 GABAA/BzR (Homo sapiens, UniProt P18507+P31644). Nature of the assay: Competition binding to HEK cell membranes, α5β3γ2. Further details: expressed in transfected cells.
The target of assay [7] is T6, α6β3γ2 GABAA/BzR (Homo sapiens, UniProt P18507+Q16445). Nature of the assay: Competition binding to HEK cell membranes, α6β3γ2. Also noted: expressed in transfected cells.
Assay [8] addresses T2, α1β3γ2 GABAA/BzR. Also noted: expressed in transfected cells; host or cells: LTK cells (given for XLi-093 only). The note with it: cited from earlier work.
The target of assay [9] is T3, α2β3γ2 GABAA/BzR. Further details: expressed in transfected cells; host or cells: LTK cells (given for XLi-093 only). The note with it: cited from earlier work.
The target in assay [10] is T4, α3β3γ2 GABAA/BzR. Also noted: expressed in transfected cells; host or cells: LTK cells (given for XLi-093 only). The note with it: cited from earlier work.
For assay [11], the target named is T6, α6β3γ2 GABAA/BzR. Further details: expressed in transfected cells; host or cells: LTK cells (given for XLi-093 only). The following applies: cited from earlier work.
Assay [12] has as its system Bz BS of GABA(A) receptors. The following applies: cited from earlier work.
Assay [13] addresses T5, α5β3γ2 GABAA/BzR. Also noted: expressed in transfected cells; host or cells: LTK cells (given for XLi-093 only). The note with it: cited from earlier work.

Structures are written as SMILES. Where “and” joins values, the source holds several entries; their conditions need not be identical. Identical values can stand only once. Like-named read-outs stand apart in the source and are kept apart here.

Regarding `CCOC(=O)c1ncn2c1CN=C(c1ccccc1)c1cc(-c3ccccc3)ccc1-2` [DM-I-81 (9)], the Ki in [1] (Figure 17, read-out: Binding data Ki α4) is over 2000 nM; in assay [2] (Figure 4, read-out: Ki α4), over 2000 nM; in assay [3] (Figure 17, read-out: Binding data Ki α1) it was over 2000 nM; in assay [4], over 2000 nM; in [5] (Figure 17, read-out: Binding data Ki α3), over 2000 nM; in assay [6] (Figure 17, read-out: Binding data Ki α5) it was 176 nM. Further, the inhibitory constant (Ki) in assay [7] (Figure 17, read-out: Binding data Ki α6) was over 2000 nM; in assay [8] (Figure 4, read-out: Ki α1) it was over 2000 nM; in [9] (Figure 4, read-out: Ki α2), over 2000 nM; in [10] (Figure 4, read-out: Ki α3) it was over 2000 nM; in assay [11] (Figure 4, read-out: Ki α6), over 2000 nM.

Regarding `C#Cc1ccc2[nH]c3cnc(C(=O)OC(C)(C)C)cc3c2c1` [WY-A-99-2 (WYS8)], the Ki in assay [1] is 2000 nM; in assay [5] (Ki α3), 1.63 nM; in [6] (Ki α5) it was 208 nM and 51 nM; in assay [7] (Ki α6), 1980 nM; in [8] (Figure 33, αxβ3γ2, read-out: Affinity Ki α1), 0.972 nM; in assay [13] (Figure 33, αxβ3γ2, read-out: Affinity Ki α5), 1470 nM. For the same molecule, in assay [11] (Figure 33, αxβ3γ2, read-out: Affinity Ki α6), the inhibitory constant (Ki) is 1980 nM. In addition, in assay [12], the “pharmacological properties compared with classical benzodiazepine receptor antagonists” value is reported as “near GABA neutral antagonists”.

On to `CC(C)(C)OC(=O)c1cc2c(cn1)[nH]c1ccc(I)cc12` [29(iodo-βCCt)], for which the Ki in assay [2] (read-out: Affinity Ki α4) was over 4000 nM; in assay [8] (read-out: Affinity Ki α1), 14.4 nM; in [9] (read-out: Affinity Ki α2) it was 44.9 nM; in assay [10] (read-out: Affinity Ki α3), 123 nM; in assay [13] (read-out: Affinity Ki α5) it was 65.3 nM; in assay [11] (read-out: Affinity Ki α6), over 4000 nM.

As to `O=C(OCC(F)(F)F)c1cc2c(cn1)[nH]c1ccc(-c3ccccc3)cc12` [38(WYB29-2)], the inhibition constant Ki in [2] (read-out: Affinity Ki α4) was 2000 nM; in [9] (read-out: Affinity Ki α2), 137 nM; in [10] (read-out: Affinity Ki α3), 125 nM; in [13] (read-out: Affinity Ki α5), 299 nM; in assay [11] (read-out: Affinity Ki α6), 2000 nM.

For the molecule `O=C(OCC(F)(F)F)c1cc2c(cn1)[nH]c1ccc(-c3ccco3)cc12` [34(WYB27-1)], the Ki in [2] (read-out: Affinity Ki α4) is 3000 nM; in assay [8] (read-out: Affinity Ki α1), 26 nM; in assay [9] (read-out: Affinity Ki α2) it was 143 nM; in assay [10] (read-out: Affinity Ki α3) it was 117 nM; in assay [13] (read-out: Affinity Ki α5) it was 127 nM; in assay [11] (read-out: Affinity Ki α6) it was 2000 nM.

`C#CC#Cc1ccc2c(c1)C(=O)N1CCC[C@H]1c1c(C(=O)OCC)ncn1-2` [compound 8]: the Ki was over 1000 nM in [2] (Figure 4, read-out: Ki α4); over 1000 nM in [8] (Figure 4, read-out: Ki α1); over 1000 nM in assay [9] (Figure 4, read-out: Ki α2); over 1000 nM in assay [10] (Figure 4, read-out: Ki α3); 64 nM in assay [13] (Figure 4, read-out: Ki α5); over 1000 nM in [11] (Figure 4, read-out: Ki α6).

On to `O=C(OC(C(F)(F)F)C(F)(F)F)c1cc2c(cn1)[nH]c1ccc(I)cc12` [32(WY-B-08)], for which the Ki in assay [2] (read-out: Affinity Ki α4) was 3000 nM; in [8] (read-out: Affinity Ki α1), 78 nM; in assay [9] (read-out: Affinity Ki α2), 301 nM; in assay [10] (read-out: Affinity Ki α3), 131 nM; in assay [13] (read-out: Affinity Ki α5), 681 nM; in assay [11] (read-out: Affinity Ki α6), 3000 nM.

With `CCOC(=O)c1cc2c(cn1)[nH]c1ccc(I)cc12` [31(iodo-βCCE)], the inhibitory constant (Ki) in [2] (read-out: Affinity Ki α4) was 1000 nM; in assay [8] (read-out: Affinity Ki α1), 4.8 nM; in assay [9] (read-out: Affinity Ki α2), 31 nM; in assay [10] (read-out: Affinity Ki α3), 34 nM; in assay [13] (read-out: Affinity Ki α5), 286 nM; in assay [11] (read-out: Affinity Ki α6), 1000 nM.

For `CC(C)(C)OC(=O)c1cc2c(cn1)[nH]c1ccc(C#CC#Cc3ccc4[nH]c5cnc(C(=O)OC(C)(C)C)cc5c4c3)cc12` [43(WY-S-6)], the inhibitory constant (Ki) was 5000 nM in [2] (read-out: Affinity Ki α4); 120 nM in assay [3] (binding to α1 subtypes); 120 nM in [8] (read-out: Affinity Ki α1); 1060 nM in [9] (read-out: Affinity Ki α2); 3940 nM in [10] (read-out: Affinity Ki α3); 5000 nM in assay [13] (read-out: Affinity Ki α5). In [11] (read-out: Affinity Ki α6), the inhibition constant Ki was 5000 nM.

On to `CC(C)(C)OC(=O)c1cc2c(cn1)[nH]c1ccc(C#Cc3ccc4[nH]c5cnc(C(=O)OC(C)(C)C)cc5c4c3)cc12` [42(WY-S-2)], for which the inhibition constant Ki is over 300 nM in assay [2] (read-out: Affinity Ki α4); 30 nM in assay [3] (binding to α1 subtypes); 30 nM in assay [8] (read-out: Affinity Ki α1); 124 nM in assay [9] (read-out: Affinity Ki α2); 100 nM in assay [10] (read-out: Affinity Ki α3); over 300 nM in assay [13] (read-out: Affinity Ki α5). For the same molecule, the Ki in assay [11] (read-out: Affinity Ki α6) is over 4000 nM.

(Values after PMC4657098, “A Review of the Updated Pharmacophore for the Alpha 5 GABA(A) Benzodiazepine Receptor Model” (International Journal of Medicinal Chemistry, 2015).)
